How the values were obtained:
SK/Lap^R1.0 = assay: CDI of example compounds and Lapatinib (ATPlite cell survival); format: cell-based; details: compound 5 μM + Lapatinib 1 μM, 72 h; secondary Lapatinib-resistant human breast cancer cells; CDI<1 synergistic
Protocol: (§1) Cells: (BT474 and SK-BR3 are Lapatinib-sensitive human breast cancer cell strains; BT/LapR and SK/LapR are secondary Lapatinib-resistant human breast cancer cell strains upon Lapatinib stimulation; MDA-MB-361 and MDA-MB-453 are natural Lapatinib-resistant human breast cancer cell strains. BT474, MDA-MB-361, SK-BR3 and MDA-MB-453 are from American Type Culture Collection (ATCC))
(§2) In a 100 mm culture dish full of adherent cells, digestion with 1 ml 0.25% pancreatin (GIBCO) was carried out at 37° C. for 5 min, and the reaction was stopped with 2 ml medium (containing 10% FBS, GIBCO). The cells were dispersed and collected. After cell count, the cells were diluted to a concentration of 1×10^5 cells/ml, and were seeded to a 96-well plate at 50 μl/well, 5000 cell/well, 60 wells in total, PBS instead of cells was added to the wells of the outmost circle, and the incubation was carried out at 37° C. for 24 h for adherence.
(§3) For the sample group, samples to be tested were diluted with DMSO to a final concentration of 5 μM; to control wells, the medium containing the same concentration of solvent corresponding to the compound was added, the concentrations of the compounds were identical in each well, 5 wells in parallel were set for each concentration, 25 μL/well, and 25 μL medium was added to each well (for the combination group, 25 μL Lapatinib was added to reach a final concentration of 1 μM). The incubation was carried out at 37° C. for 72 h.
(§4) To each well, 50 μL ATPlite kit substrate solution was added. The plate was under shaking for 3 min, and was then placed in dark for 10 min. The lysis supernatant was drawn at 100 μL/well, and placed in a luminescent plate. The incubated luminescent plate was placed in an iluminescence apparatus, and the iluminescent value was read.
(§5) Data Processing Cell survival rate (%)=Experimental group RLU/control group RLU×100%
(§6) Coefficient of drug interaction (CDI) is used to evaluate the interaction of two drugs, CDI is calculated in accordance with the following formula: CDI=AB/(A×B)×100%. The calculation is performed according to the number of live cells (luminescent value), if CDI<1, the two drugs have a synergistic effect; if CDI<0.7, the synergistic effect is very significant; if CDI=1, the effect of the two drugs in combination is the sum of the effects of the two drugs; if CDI>1, the two drugs have an antagonistic effect.

BT/Lap^R1.0 = assay: as above; format: cell-based; details: compound 5 μM + Lapatinib 1 μM, 72 h; secondary Lapatinib-resistant human breast cancer cells; CDI<1 synergistic
Protocol: as §1, §2, §3, §4, §5, §6

Hsp70 ATPase = target: T1, Hsp70 ATPase (Homo sapiens, UniProt P0DMV8); assay: Inhibition of Hsp70 ATPase activity (malachite green); format: biochemical; details: 200 μM; repeated screening carried out twice; Hsp70/Hsp40, 1 mM ATP; read-out: Inhibitory rate (%) on activity of Hsp70 ATPase
T1 construct: made in house; host or cells: E. coli
Protocol: (1) Protein: Humanized Hsp70, Hsp40, expressed by E. coli.
(2) Sample to be tested: 26 compound solids with different colors and states. Positive drugs AZ (CAS:1054543-47-3) and VER 155008 (CAS: 1134156-31-2) were synthesized in the laboratory.
(4) ATPase Assay buffer: • 0.017% Triton X-100; • 100 mM Tris-HCl; • 20 mM KCl; • 6 mM MgCl2, pH 7.4.
1) 13.08 μl DnaK (0.15 mg/mL, 2.14 μM), 1.96 μl DnaJ (1 mg/mL, 25 μM) were dissolved in 7.96 μl Assay Buffer (0.017% Triton X-100, 100 mM Tris-HCl, 20 mM KCl, and 6 mM MgCl2, pH 7.4), and the resultant solution was added to each well of the 96 well plate;
2) to each well of the 96 well plate, 1 μL sample to be tested (5 mM) or DMSO (solvent) was added, and vortexed with a Vortex agitator for 10 min; and then standing at 37° C. for 30 min;
3) to each well, 1 μL 25 mM ATP was added, to trigger the enzymatic reaction; (in each well, the final reaction volume was 25 μL, the final concentration of DnaK was 1.12 μM, the final concentration of DnaJ was 1.96 μM, the final concentration of DMSO was 4%, the final concentration of Triton X-100 was 0.01%, the final concentration of ATP was 1 mM, and the final concentration of sample to be tested was 200 μM), the enzymatic reaction was carried out at 37° C. for 3 h;
4) 80 μL Malachite green staining solution was then added to each well, and was vortexed gently;
5) 10 μL of 34% citrate sodium was then added immediately, and vortexed gently, to stop the ATP hydrolysis not caused by ATPase;
6) the resultant mixture was mixed thoroughly at 37° C. for 15 min, and OD620 was measured.
The inhibitory rate of Hsp70 ATPase activity is calculated in accordance with the following formula: Inhibitory rate (%)=(DMSO well OD−Experimental well OD)/(DMSO well OD−Blank well OD)×100
Criteria for preliminary screening: during preliminary screening, an example compound is regarded as effective in inhibition as long as its inhibitory rate is above 20% for Hsp70 ATPase at 200 μM.

MDA-MB-453 = assay: CDI of example compounds and Lapatinib (ATPlite cell survival); format: cell-based; design: key: CDI = AB/(A×B); <1 synergistic; details: compound 5 μM + Lapatinib 1 μM, 72 h; natural Lapatinib-resistant human breast cancer cells; CDI<1 synergistic
Protocol: as §1, §2, §3, §4, §5, §6

SK-BR3 = assay: as above; format: cell-based; design: key: CDI = AB/(A×B); <1 synergistic; details: compound 5 μM + Lapatinib 1 μM, 72 h; Lapatinib-sensitive human breast cancer cells; CDI<1 synergistic
Protocol: as §1, §2, §3, §4, §5, §6

MDA-MB-361 = assay: as above; format: cell-based; design: key: CDI = AB/(A×B); <1 synergistic; details: compound 5 μM + Lapatinib 1 μM, 72 h; natural Lapatinib-resistant human breast cancer cells; CDI<1 synergistic
Protocol: as §1, §2, §3, §4, §5, §6

BT474 = assay: as above; format: cell-based; design: key: CDI = AB/(A×B); <1 synergistic; details: compound 5 μM + Lapatinib 1 μM, 72 h; Lapatinib-sensitive human breast cancer cells; CDI<1 synergistic, <0.7 very significant, >1 antagonistic
Protocol: as §1, §2, §3, §4, §5, §6

T1 sequence (P0DMV8 2-641 limits assumed): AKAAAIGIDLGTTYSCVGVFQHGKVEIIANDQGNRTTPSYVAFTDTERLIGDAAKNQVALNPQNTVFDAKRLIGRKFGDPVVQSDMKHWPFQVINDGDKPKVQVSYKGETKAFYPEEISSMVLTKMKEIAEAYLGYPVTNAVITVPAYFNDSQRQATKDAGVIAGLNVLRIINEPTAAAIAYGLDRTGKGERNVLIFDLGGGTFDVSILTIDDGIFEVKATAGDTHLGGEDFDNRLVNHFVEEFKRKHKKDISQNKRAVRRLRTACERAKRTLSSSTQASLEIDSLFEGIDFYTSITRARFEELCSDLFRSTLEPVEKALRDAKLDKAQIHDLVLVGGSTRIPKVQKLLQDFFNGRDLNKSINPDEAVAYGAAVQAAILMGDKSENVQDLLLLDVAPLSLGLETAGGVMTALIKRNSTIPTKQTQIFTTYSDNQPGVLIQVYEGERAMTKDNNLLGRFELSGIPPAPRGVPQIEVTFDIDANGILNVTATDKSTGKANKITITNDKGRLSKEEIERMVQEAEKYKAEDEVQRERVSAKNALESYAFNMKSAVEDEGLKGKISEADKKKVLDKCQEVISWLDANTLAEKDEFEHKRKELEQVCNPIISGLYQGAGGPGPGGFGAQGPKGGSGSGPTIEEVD

Compound: COc1cc(/C=C/C(=O)NC(CC(C)C)NC(=S)Nc2ccccn2)cc(OC)c1OC (stereo not shown) [Example 31, (2E)-N-[3-methyl-1-(3-pyridin-2-ylthioureido)butyl]-3-(3,4,5-trimethoxyphenyl) acrylamide]
- CDI of example compounds and Lapatinib, SK/Lap^R1.0 (SK/Lap^R1.0): 0.95
- CDI of example compounds and Lapatinib, BT/Lap^R1.0 (BT/Lap^R1.0): 1.2
- inhibition at 200 µM (Hsp70 ATPase): 10.5%
- CDI of example compounds and Lapatinib, MDA-MB-453 (MDA-MB-453): 1.38
- CDI of example compounds and Lapatinib, SK-BR3 (SK-BR3): 1
- CDI of example compounds and Lapatinib, MDA-MB-361 (MDA-MB-361): 0.85
- CDI of example compounds and Lapatinib, BT474 (BT474): 1.01

Compound: COc1cc(/C=C/C(=O)NC(CC(C)(C)C)NC(=S)Nc2ccccc2)cc(OC)c1OC (stereo not shown) [Example 32, (2E)-N-[3,3-dimethyl-1-(3-phenylthioureido)butyl]-3-(3,4,5-trimethoxyphenyl)acrylamide]
- CDI of example compounds and Lapatinib, SK/Lap^R1.0 (SK/Lap^R1.0): 0.89
- CDI of example compounds and Lapatinib, BT/Lap^R1.0 (BT/Lap^R1.0): 1.25
- inhibition at 200 µM (Hsp70 ATPase): 44.1%
- CDI of example compounds and Lapatinib, MDA-MB-453 (MDA-MB-453): 1.42
- CDI of example compounds and Lapatinib, SK-BR3 (SK-BR3): 1.13
- CDI of example compounds and Lapatinib, MDA-MB-361 (MDA-MB-361): 0.91
- CDI of example compounds and Lapatinib, BT474 (BT474): 0.65

Compound: COc1cc(/C=C/C(=O)NC(CC(C)(C)C)NC(=S)Nc2cccnc2)cc(OC)c1OC (stereo not shown) [Example 33, (2E)-N-[3,3-dimethyl-1-(3-pyridin-3-ylthioureido)butyl]-3-(3,4,5-trimethoxyphenyl) acrylamide]
- CDI of example compounds and Lapatinib, SK/Lap^R1.0 (SK/Lap^R1.0): 0.88
- CDI of example compounds and Lapatinib, BT/Lap^R1.0 (BT/Lap^R1.0): 0.97
- inhibition at 200 µM (Hsp70 ATPase): 47.1%
- CDI of example compounds and Lapatinib, MDA-MB-453 (MDA-MB-453): 1.19
- CDI of example compounds and Lapatinib, SK-BR3 (SK-BR3): 0.96
- CDI of example compounds and Lapatinib, MDA-MB-361 (MDA-MB-361): 0.89
- CDI of example compounds and Lapatinib, BT474 (BT474): 0.81

Compound: COc1cc(/C=C/C(=O)NC(CC(C)(C)C)NC(=S)Nc2ccccn2)cc(OC)c1OC (stereo not shown) [Example 34, (2E)-N-[3,3-dimethyl-1-(3-pyridin-2-ylthioureido)butyl]-3-(3,4,5-trimethoxyphenyl) acrylamide]
- CDI of example compounds and Lapatinib, SK/Lap^R1.0 (SK/Lap^R1.0): 0.85
- CDI of example compounds and Lapatinib, BT/Lap^R1.0 (BT/Lap^R1.0): 1
- inhibition at 200 µM (Hsp70 ATPase): 9.36%
- CDI of example compounds and Lapatinib, MDA-MB-453 (MDA-MB-453): 1.41
- CDI of example compounds and Lapatinib, SK-BR3 (SK-BR3): 0.98
- CDI of example compounds and Lapatinib, MDA-MB-361 (MDA-MB-361): 0.87
- CDI of example compounds and Lapatinib, BT474 (BT474): 0.98

Compound: COc1cc(/C=C/C(=O)NC(NC(=S)Nc2ccccn2)C(C)C)cc(OC)c1OC (stereo not shown) [Example 35, (2E)-N-[2-methyl-1-(3-pyridin-2-ylthioureido)propyl]-3-(3,4,5-trimethoxyphenyl) acrylamide]
- CDI of example compounds and Lapatinib, SK/Lap^R1.0 (SK/Lap^R1.0): 0.9
- CDI of example compounds and Lapatinib, BT/Lap^R1.0 (BT/Lap^R1.0): 1.04
- inhibition at 200 µM (Hsp70 ATPase): -6.13%
- CDI of example compounds and Lapatinib, MDA-MB-453 (MDA-MB-453): 1.37
- CDI of example compounds and Lapatinib, SK-BR3 (SK-BR3): 0.99
- CDI of example compounds and Lapatinib, MDA-MB-361 (MDA-MB-361): 0.86
- CDI of example compounds and Lapatinib, BT474 (BT474): 0.96

Compound: O=C(/C=C/c1ccccc1)NC(NC(=S)Nc1ccccn1)C1CC1 (stereo not shown) [Example 37, (2E)-N-[cyclopropyl-(3-pyridin-2-ylthioureido)-methyl] cinnamamide]
- CDI of example compounds and Lapatinib, SK/Lap^R1.0 (SK/Lap^R1.0): 1.03
- CDI of example compounds and Lapatinib, BT/Lap^R1.0 (BT/Lap^R1.0): 1.02
- inhibition at 200 µM (Hsp70 ATPase): 1.51%
- CDI of example compounds and Lapatinib, MDA-MB-453 (MDA-MB-453): 1.34
- CDI of example compounds and Lapatinib, SK-BR3 (SK-BR3): 0.99
- CDI of example compounds and Lapatinib, MDA-MB-361 (MDA-MB-361): 0.99
- CDI of example compounds and Lapatinib, BT474 (BT474): 0.98

Compound: CC(C)CC(NC(=O)/C=C/c1ccccc1)NC(=S)Nc1ccccc1 (stereo not shown) [Example 38, (2E)-N-[3-methyl-1-(3-phenylthioureido)butyl] cinnamamide]
- CDI of example compounds and Lapatinib, SK/Lap^R1.0 (SK/Lap^R1.0): 0.93
- CDI of example compounds and Lapatinib, BT/Lap^R1.0 (BT/Lap^R1.0): 0.93
- inhibition at 200 µM (Hsp70 ATPase): 2.51%
- CDI of example compounds and Lapatinib, MDA-MB-453 (MDA-MB-453): 1.21
- CDI of example compounds and Lapatinib, SK-BR3 (SK-BR3): 1.16
- CDI of example compounds and Lapatinib, MDA-MB-361 (MDA-MB-361): 1
- CDI of example compounds and Lapatinib, BT474 (BT474): 0.86

Compound: CC(C)(C)CC(NC(=O)/C=C/c1ccccc1)NC(=S)Nc1ccccc1 (stereo not shown) [Example 39, (2E)-N-[3,3-dimethyl-1-(3-phenylthioureido)butyl] cinnamamide]
- CDI of example compounds and Lapatinib, SK/Lap^R1.0 (SK/Lap^R1.0): 0.95
- CDI of example compounds and Lapatinib, BT/Lap^R1.0 (BT/Lap^R1.0): 1.19
- inhibition at 200 µM (Hsp70 ATPase): 18.4%
- CDI of example compounds and Lapatinib, MDA-MB-453 (MDA-MB-453): 1.2
- CDI of example compounds and Lapatinib, SK-BR3 (SK-BR3): 1.2
- CDI of example compounds and Lapatinib, MDA-MB-361 (MDA-MB-361): 0.92
- CDI of example compounds and Lapatinib, BT474 (BT474): 0.79

Compound: CC(C)(C)C(NC(=O)/C=C/c1ccccc1)NC(=S)Nc1ccccc1 (stereo not shown) [Example 40, (2E)-N-[2,2-dimethyl-1-(3-phenylthioureido)propyl] cinnamamide]
- CDI of example compounds and Lapatinib, SK/Lap^R1.0 (SK/Lap^R1.0): 0.99
- CDI of example compounds and Lapatinib, BT/Lap^R1.0 (BT/Lap^R1.0): 0.95
- inhibition at 200 µM (Hsp70 ATPase): 27.3%
- CDI of example compounds and Lapatinib, MDA-MB-453 (MDA-MB-453): 1.37
- CDI of example compounds and Lapatinib, SK-BR3 (SK-BR3): 1.14
- CDI of example compounds and Lapatinib, MDA-MB-361 (MDA-MB-361): 0.95
- CDI of example compounds and Lapatinib, BT474 (BT474): 0.85

Compound: O=C(/C=C/c1ccccc1)NC(NC(=S)Nc1ccccc1)C1CC1 (stereo not shown) [Example 41]
- CDI of example compounds and Lapatinib, SK/Lap^R1.0 (SK/Lap^R1.0): 1.02
- CDI of example compounds and Lapatinib, BT/Lap^R1.0 (BT/Lap^R1.0): 0.99
- inhibition at 200 µM (Hsp70 ATPase): 22.5%
- CDI of example compounds and Lapatinib, MDA-MB-453 (MDA-MB-453): 1.07
- CDI of example compounds and Lapatinib, SK-BR3 (SK-BR3): 1.09
- CDI of example compounds and Lapatinib, MDA-MB-361 (MDA-MB-361): 0.91
- CDI of example compounds and Lapatinib, BT474 (BT474): 0.91

— patent publication US9718770B2, “Substituted thioureas as heat shock protein 70 inhibitors” (Institute of Pharmacology and Toxicology Academy of …, priority 2013, dated 2017)
